Ends that are not written are not given here.
Experiments:
SNU387 cells = experiment: Cell viability assay in SNU387 cells (no SALL4 expression); assay type: cell-based; settings: cell viability after 72 hr
Description: FIGS. 6A-6B. Therapeutic window of PEN-FFW in HCC cell lines. FIG. 6A: Peptides were added to HCC cell line SNU398 with high expression of SALL4. FIG. 6B: HCC cell line SNU387 with no expression of SALL4, and cell viability was measured after 72 hr of incubation.
The efficacies of the FFW, WT and MUT peptides were compared at the cellular level and in mice. A penetratin sequence (PEN) was attached to the N-terminus of each peptide to facilitate cell penetration in vitro. […] The therapeutic window of PEN-FFW in SALL4 expressing HCC cells was accessed in SNU387 cells, a HCC line with undetectable level of SALL4, as well as SNU398. The MUT and WT SALL4 peptides were also included in this assay for comparison (FIGS. 6 A & B).

PTEN = PTEN mRNA in resected SNU398 tumors by real-time PCR; assay type: in vivo, NOD/SCID/gamma mice; settings: harvested SNU398 tumors
Description: FIGS. 7A-7E. Anti-tumor activity of the candidate therapeutic peptide FFW. FIG. 7A: 7.2×10^5 SNU398 cells were inoculated subcutaneously into the right flank of NOD/SCID/gamma mice (NSG mice). Tumors were allowed to grow for one week before peptide treatments were administered every alternate day for a total of five injections. FIG. 7B: Tumor growth was documented by plotting tumor volume against time. […] FIG. 7C: Relative size of tumors resected on day 20. FIG. 7D: tumor weight was determined (n=5). PEN-FFW treated mice had the smallest tumors (μ=88.34 mg) compared to PEN (μ=1550.78 mg), PEN-MUT (μ=1273.46 mg) and PEN-WT (μ=563.46 mg). FIG. 7E: Total RNA was isolated from the resected tumors and expression of PTEN was measured using real-time PCR.
Tumors resected from mice were homogenized in Trizol. Total RNA was extracted and treated with RNase-free DNase (Qiagen). Reverse transcription was carried out using Superscript III Reverse Transcriptase. Quantitative PCR was performed using GoTaq qPCR Master Mix (Promega). Amplification was done with a Corbett Rotor Gene 6000 (Qiagen). Each sample was assayed in triplicate.

## RQIKIWFQNRRMKWKKRRKFAKFQWI [PEN-FFW]
SNU387 cells
  specificity SNU398 (SALL4 high) versus SNU387 (no SALL4): specificity of PEN-FFW in targeting SALL4-high HCC cells (SNU398)
PTEN
  increase in PTEN expression in tumors compared to PEN control mice: 9 fold

Reference: patent US10793601B2, “Therapeutic spalt-like transcription factor 4 (SALL4) peptide” (National University of Singapore, priority 2016, dated 2020)
